Reference: US9243025B2, “Compounds and pharmaceutical compositions for the treatment of viral infections” (Idenix Pharmaceuticals, LLC, priority 2011, dated 2016)
Like-named read-outs stand apart in the source and are kept apart here.

How the values were obtained:
[1] = test system: Huh-7 cells containing HCV Coni subgenomic replicon (GS4.1 cells); assay: HCV replicon assay; assay type: cell-based; settings: read-out: HCV Replicon EC50
Method: (§1) Huh-7 cells containing HCV Coni subgenomic replicon (GS4.1 cells), (C. Seeger; Fox Chase University, Philadelphia, Pa., USA), are grown in Dulbecco's Modified Eagle Medium (DMEM) supplemented with 10% fetal bovine serum (FBS), 2 mM L-glutamine, 110 mg/L sodium pyruvate, 1× non-essential amino acids, 100 U/mL penicillin-streptomycin and 0.5 mg/mL G418 (Invitrogen). For dose-response testing, the cells are seeded in 96-well plates at 7.5×10^3 cells/well in a volume of 50 μL and incubated at 37° C./5% CO2. Three hours after plating, 50 μL of ten 2-fold serial dilutions of compounds (highest concentration, 75 μM) are added and cell cultures were incubated at 37° C./5% CO2 in the presence of 0.5% DMSO. Alternatively, compounds are tested at a single concentration of 15 μM. In all cases, Huh-7 cells lacking the HCV replicon served as negative control. The cells are incubated in the presence of compounds for 72 hours after which they were monitored for expression of the NS4A protein by enzyme-linked immunosorbent assay (ELISA). For this, the plates were then fixed for 1 min with 1:1 acetone:methanol, washed twice with phosphate-buffered saline (PBS), 0.1% Tween 20, blocked for 1 hour at room temperature with TNE buffer containing 10% FBS and then incubated for 2 h at 37° C. with the anti-NS4A mouse monoclonal antibody A-236 (ViroGen) diluted in the same buffer. After washing three times with PBS, 0.1% Tween 20, the cells are incubated 1 hour at 37° C. with anti-mouse immunoglobulin G-peroxidase conjugate in TNE, 10% FBS. After washing as described above, the reaction is developed with O-phenylenediamine (Zymed). The reaction is stopped after 30 minutes with […] and the absorbance is read at 492 nm using a Sunrise Tecan spectrophotometer. EC50 values are determined from the % inhibition versus concentration data using a sigmoidal non-linear regression analysis based on four parameters with Tecan Magellan software. When screening at a single concentration, the results are expressed as % inhibition at 15 μM. For cytotoxicity evaluation, GS4.1 cells are treated with compounds as described above and cellular viability was monitored using a Cell Titer 96 AQueous One Solution Cell Proliferation Assay (Promega). CC50 values are determined from the % cytotoxicity versus concentration data with Tecan Magellan software as described above.
Compounds presented in the table below were assayed according to the replicon assay described above.

[2] = Cytotoxicity evaluation in GS4.1 cells (Cell Titer 96 AQueous One Solution Cell Proliferation Assay); assay type: cell-based; settings: human, cellular viability, treated as in replicon assay, read-out: HCV Replicon CC50
Method: as §1

[3] = Hepatitis C virus, Huh-7, 72 h, GS4.1 cells, 72 hours incubation, NS4A expression by ELISA

SMILES | EC50 [1, 3] [nM] | CC50 at 72 h [2] [nM] | EC50 ([1]; GS4.1 cells, 72 hours incubation, NS4A expression by ELISA) [nM] | EC50 ([1]; Hepatitis C virus, Huh-7, 72 h) [nM]
CCOC(=O)[C@@H](NP(=O)(N[C@@H](C(=O)OCC)c1ccccc1)OC[C@H]1O[C@@H](n2cnc3c(OC)nc(N)nc32)C(C)(O)C1O)c1ccccc1 (stereo partly drawn) [Compound 59] | 1000 to 10000 | > 75000 | – | –
CCOC(=O)[C@H](CC(C)C)NP(=O)(N[C@@H](CC(C)C)C(=O)OCC)OC[C@H]1O[C@@H](n2cnc3c(=O)[nH]c(N)nc32)C(C)(O)C1O (stereo partly drawn) [Compound 37] | 1000 to 10000 | > 75000 | – | –
C#CC1(F)C(O)[C@@H](COP(=O)(NC(CC(C)C)C(=O)OCC)NC(CC(C)C)C(=O)OCC)O[C@H]1n1cnc2c(=O)[nH]c(N)nc21 (stereo partly drawn) [Compound 22] | > 10000 | > 75000 | – | –
COc1ccn([C@@H]2O[C@H](COP(=O)(NCc3ccccc3)OCCSC(=O)C(C)(C)CO)[C@@H](O)[C@@]2(C)O)c(=O)n1 (stereo partly drawn) [Compound 56] | < 100 | > 75000 | – | –
COC(=O)C(CC(C)C)NP(=O)(NC(CC(C)C)C(=O)OC)OC[C@H]1O[C@@H](n2cnc3c(NC4CC4)nc(N)nc32)C(C)(O)C1O (stereo partly drawn) [Compound 8] | 100 to 1000 | > 75000 | – | –
COc1nc(N)nc2c1ncn2[C@@H]1O[C@H](COP(=O)(NC(CC(C)C)C(=O)OC(C)C)NC(CC(C)C)C(=O)OC(C)C)C(O)C1(C)O (stereo in doubt) [Compound 12] | 100 to 1000 | > 75000 | – | –
CN(N)c1nc(N)nc2c1ncn2[C@@H]1O[C@H](COP(=O)(NCc2ccccc2)OCCSC(=O)C(C)(C)CO)C(O)C1(C)O (stereo partly drawn) [Compound 78] | 100 to 1000 | > 75000 | – | –
C#CC1(F)C(O)[C@@H](COP(=O)(NC(CC(C)C)C(=O)OC)NC(CC(C)C)C(=O)OC)O[C@H]1n1cnc2c(=O)[nH]c(N)nc21 (stereo partly drawn) [Compound 23] | > 10000 | > 75000 | – | –
CCOC(=O)C(CC(C)C)NP(=O)(NC(CC(C)C)C(=O)OCC)OC[C@H]1O[C@@H](n2cnc3c(NC4CC4)nc(N)nc32)C(C)(O)C1O (stereo partly drawn) [Compound 6] | < 100 | > 75000 | – | –
CCOC(=O)[C@@H](NP(=O)(N[C@@H](C(=O)OCC)C(C)C)OC[C@H]1O[C@@H](n2cnc3c(OC)nc(N)nc32)C(C)(O)C1O)C(C)C (stereo partly drawn) [Compound 58] | < 100 | > 75000 | – | –
CCOC(=O)[C@H](Cc1ccccc1)NP(=O)(N[C@@H](Cc1ccccc1)C(=O)OCC)OC[C@H]1O[C@@H](n2cnc3c(N4CCOCC4)nc(N)nc32)C(C)(O)C1O (stereo partly drawn) [Compound 71] | < 100 | > 75000 | – | –
CCOC(=O)[C@H](CC(C)C)NP(=O)(N[C@@H](CC(C)C)C(=O)OCC)OC[C@H]1O[C@@H](n2cnc3c(OC)nc(N)nc32)C(C)(O)C1O (stereo partly drawn) [Compound 65] | < 100 | > 75000 | – | –
CCOC(=O)[C@H](CC(C)C)NP(=O)(N[C@@H](CC(C)C)C(=O)OCC)OC[C@H]1O[C@@H](n2ccc(OC)nc2=O)[C@](C)(O)[C@@H]1O [Compound 55] | 100 to 1000 | > 75000 | – | –
CCOC(=O)C(Cc1ccccc1)NP(=O)(NC(Cc1ccccc1)C(=O)OCC)OC[C@H]1O[C@@H](n2cnc3c(OC)nc(N)nc32)C(C)(O)C1O (stereo in doubt) [Compound 16] | < 100 | ≤ 75000 | – | –
CCOC(=O)C(NP(=O)(NC(C(=O)OCC)C(C)C)OC[C@H]1O[C@@H](n2cnc3c(NC4CC4)nc(N)nc32)C(C)(O)C1O)C(C)C (stereo partly drawn) [Compound 70] | 100 to 1000 | > 75000 | – | –
CCOC(=O)[C@@H](NP(=O)(N[C@H](C(=O)OCC)C(C)CC)OC[C@H]1O[C@@H](n2cnc3c(N4CCCC4)nc(N)nc32)C(C)(O)C1O)C(C)CC (stereo partly drawn) [Compound 67] | 100 to 1000 | > 75000 | – | –
CCOC(=O)[C@@H](NP(=O)(N[C@H](C(=O)OCC)C(C)C)OC[C@H]1O[C@@H](n2cnc3c(SC)nc(N)nc32)C(C)(O)C1O)C(C)C (stereo partly drawn) [Compound 77] | 100 to 1000 | > 75000 | – | –
CC(C)NP(=O)(OCCSC(=O)C(C)(C)CO)OC[C@H]1O[C@@H](n2cnc3c(NC4CC4)nc(N)nc32)C(C)(O)C1O (stereo partly drawn) [Compound 75] | 100 to 1000 | > 75000 | – | –
COC(=O)C(CC(C)C)NP(=O)(NC(CC(C)C)C(=O)OC)OC[C@H]1O[C@@H](n2cnc3c(OC)nc(N)nc32)[C@@](C)(O)C1O (stereo in doubt) [Compound 3] | 100 to 1000 | > 75000 | – | –

SMILES | EC50 [1, 3] [nM] | CC50 at 72 h [2] [nM] | EC50 ([1]; GS4.1 cells, 72 hours incubation, NS4A expression by ELISA) [nM] | EC50 ([1]; Hepatitis C virus, Huh-7, 72 h) [nM]
CCCOc1nc(N)nc2c1ncn2[C@@H]1O[C@H](COP(=O)(N[C@@H](CC(C)C)C(=O)OCC)N[C@@H](CC(C)C)C(=O)OCC)C(O)C1(C)O (stereo partly drawn) [Compound 33] | < 100 | ≤ 75000 | – | –
CCOC(=O)[C@H](C)NP(=O)(N[C@@H](C)C(=O)OCC)OC[C@H]1O[C@@H](n2cnc3c(NC4CC4)nc(N)nc32)[C@@](C)(O)C1O (stereo partly drawn) [Compound 31] | 100 to 1000 | > 75000 | – | –
CCOC(=O)[C@H](CC(C)C)NP(=O)(N[C@@H](CC(C)C)C(=O)OCC)OC[C@H]1O[C@@H](n2cnc3c(N(C)C)nc(N)nc32)C(C)(O)C1O (stereo partly drawn) [Compound 35] | < 100 | > 75000 | – | –
CCOC(=O)CCNP(=O)(OCCSC(=O)C(C)(C)CO)OC[C@H]1O[C@@H](n2cnc3c(NC4CC4)nc(N)nc32)C(C)(O)C1O (stereo partly drawn) [Compound 76] | 100 to 1000 | > 75000 | – | –
CCOC(=O)[C@@H](NP(=O)(N[C@H](C(=O)OCC)C(C)C)OC[C@H]1O[C@@H](n2cnc3c(N4CCCC4)nc(N)nc32)C(C)(O)C1O)C(C)C (stereo partly drawn) [Compound 68] | < 100 | > 75000 | – | –
CCOC(=O)CCNP(=O)(OCCSC(=O)C(C)(C)CO)OC[C@H]1O[C@@H](n2cnc3c(OC)nc(N)nc32)C(C)(O)C1O (stereo partly drawn) [Compound 74] | 100 to 1000 | > 75000 | – | –
CCOC(=O)[C@H](CC(C)C)NP(=O)(N[C@H](CC(C)C)C(=O)OCC)OC[C@H]1O[C@@H](n2cnc3c(OC(C)C)nc(N)nc32)C(C)(O)C1O (stereo partly drawn) [Compound 62] | < 100 | > 75000 | – | –
CC(C)NP(=O)(OCCSC(=O)C(C)(C)CO)OC[C@H]1O[C@@H](n2cnc3c(Cl)nc(N)nc32)C(C)(O)C1O (stereo partly drawn) [Compound 79] | < 100 | ≤ 75000 | – | –
CCOC(=O)[C@@H](NP(=O)(N[C@H](C(=O)OCC)c1ccccc1)OC[C@H]1O[C@@H](n2cnc3c(NC4CC4)nc(N)nc32)C(C)(O)C1O)c1ccccc1 (stereo partly drawn) [Compound 30] | 1000 to 10000 | > 75000 | – | –
CCOC(=O)[C@H](Cc1ccccc1)NP(=O)(N[C@@H](Cc1ccccc1)C(=O)OCC)OC[C@H]1O[C@@H](n2cnc3c(NC4CC4)nc(N)nc32)[C@@](C)(O)C1O (stereo partly drawn) [Compound 32] | < 100 | > 75000 | – | –
COc1nc(N)nc2c1ncn2[C@@H]1O[C@H](COP(=O)(NC(Cc2ccccc2)C(=O)OC(C)C)NC(Cc2ccccc2)C(=O)OC(C)C)C(O)C1(C)O (stereo partly drawn) [Compound 13] | 100 to 1000 | ≤ 75000 | – | –
CCOC(=O)[C@@H](NP(=O)(N[C@H](C(=O)OCC)C(C)C)OC[C@H]1O[C@@H](n2cnc3c(N4CCOCC4)nc(N)nc32)C(C)(O)C1O)C(C)C (stereo partly drawn) [Compound 72] | 100 to 1000 | > 75000 | – | –
COC(=O)C(CC(C)C)NP(=O)(NC(CC(C)C)C(=O)OC)OC[C@H]1O[C@@H](n2cnc3c(OC)nc(N)nc32)[C@@]2(C)OC(=O)OC12 (stereo partly drawn) [Compound 4] | < 100 | > 75000 | – | –
CCOC(=O)[C@H](CC)NP(=O)(N[C@H](CC)C(=O)OCC)OC[C@H]1O[C@@H](n2cnc3c(OC)nc(N)nc32)C(C)(O)C1O (stereo partly drawn) [Compound 63] | 100 to 1000 | > 75000 | – | –
C#CC1(F)C(O)[C@@H](COP(=O)(NCC(=O)OCC)NCC(=O)OCC)O[C@H]1n1cnc2c(=O)[nH]c(N)nc21 (stereo partly drawn) [Compound 48] | 1000 to 10000 | > 75000 | – | –
CCOC(=O)[C@@H](CC(C)C)NP(=O)(N[C@H](CC(C)C)C(=O)OCC)OC[C@H]1O[C@@H](n2cnc3c(OC)nc(N)nc32)C(C)(O)C1O (stereo partly drawn) [Compound 61] | – | > 75000 | 1000 to 10000 | –
CCOC(=O)[C@H](CC(C)C)NP(=O)(N[C@@H](CC(C)C)C(=O)OCC)OC[C@H]1O[C@@H](n2ccc(=O)[nH]c2=O)C(C)(O)C1O (stereo partly drawn) [Compound 80] | 1000 to 10000 | > 75000 | – | –
CCOC(=O)[C@H](Cc1ccccc1)NP(=O)(N[C@@H](Cc1ccccc1)C(=O)OCC)OC[C@H]1O[C@@H](n2cnc3c(N4CCCC4)nc(N)nc32)C(C)(O)C1O (stereo partly drawn) [Compound 69] | < 100 | ≤ 75000 | – | –
COc1nc(N)nc2c1ncn2[C@@H]1O[C@H](COP(=O)(NC(C)C)OCCSC(=O)C(C)(C)CO)C(O)C1(C)O (stereo partly drawn) [Compound 57] | – | – | – | 100 to 1000
